Experimental data as given in article PMC5465826 (Research in Pharmaceutical Sciences, 2017).
Where “and” joins values, the source holds several entries; their conditions need not be identical. Equal values may be shown once. Read-outs that look alike come from different tables or passages of the source.

What was measured:
[1] = humans, 5 g oral dose of a botanical mixture of 7 herbs; ref [28]; cited from earlier work
[2] = ref [18][19][21][25][26][27], cited from earlier work
[3] = intravenous 20 mg/kg, achiral, approximate; ref [25][26]; cited from earlier work
[4] = assay type: in vivo, rat
[5] = oral, given alone or in a mixture (exact dose unknown), approximate
[6] = rat serum, IV 20 mg/kg racemic liquiritigenin, mean ± SEM, n = 4, 20 mg/kg

time liquiritigenin could be measured in serum ([4]; rat serum)	time liquiritigenin could be measured (detected) in urine ([4]; rat urine)	Vss ([4]; rat, IV 20 mg/kg racemic liquiritigenin, mean ± SEM, n = 4, 20 mg/kg) [L/kg]	Compound	fraction excreted unchanged in the urine (fe %) [1] [%]	bioavailability ([2]; Kang, et al., oral doses of 20-50 mg/kg)	AUC [2, 5] [ng·h/mL]	plasma half-lives [2, 5] [h]	AUC [3] [µg·min/mL]	clearances [3] [mL/min/kg]	plasma half-lives [3] [min]	t1/2 serum [4, 6]
			O=C1C[C@@H](c2ccc(O)cc2)Oc2cc(O)ccc21 [S-liquiritigenin]	36.2 ± 19.0							
only an hour	up to 70 h	2.7 to 4.6	O=C1C[C@@H](c2ccc(O)cc2)Oc2cc(O)ccc21 [liquiritigenin]		3-7%	19 to 6594	3 to 11	290 to 410	50 to 70	5 to 8	12 to 30 min and 15 to 32.4 min and 15 to 25.8 min
			O=C1C[C@H](c2ccc(O)cc2)Oc2cc(O)ccc21 [R-liquiritigenin]	50.9 ± 21.6							32.59 ± 4.26 min
